Results on four compounds are retold here after ChEMBL document CHEMBL5252509, “In depth analysis of kinase cross screening data to identify chemical starting points for inhibition of the Nek family of kinases” (Medchemcomm, 2018).

Experiment [1] addresses T1, Serine/threonine-protein kinase Nek5 (Homo sapiens) (UniProt Q6P3R8).
T1 sequence (whole entry): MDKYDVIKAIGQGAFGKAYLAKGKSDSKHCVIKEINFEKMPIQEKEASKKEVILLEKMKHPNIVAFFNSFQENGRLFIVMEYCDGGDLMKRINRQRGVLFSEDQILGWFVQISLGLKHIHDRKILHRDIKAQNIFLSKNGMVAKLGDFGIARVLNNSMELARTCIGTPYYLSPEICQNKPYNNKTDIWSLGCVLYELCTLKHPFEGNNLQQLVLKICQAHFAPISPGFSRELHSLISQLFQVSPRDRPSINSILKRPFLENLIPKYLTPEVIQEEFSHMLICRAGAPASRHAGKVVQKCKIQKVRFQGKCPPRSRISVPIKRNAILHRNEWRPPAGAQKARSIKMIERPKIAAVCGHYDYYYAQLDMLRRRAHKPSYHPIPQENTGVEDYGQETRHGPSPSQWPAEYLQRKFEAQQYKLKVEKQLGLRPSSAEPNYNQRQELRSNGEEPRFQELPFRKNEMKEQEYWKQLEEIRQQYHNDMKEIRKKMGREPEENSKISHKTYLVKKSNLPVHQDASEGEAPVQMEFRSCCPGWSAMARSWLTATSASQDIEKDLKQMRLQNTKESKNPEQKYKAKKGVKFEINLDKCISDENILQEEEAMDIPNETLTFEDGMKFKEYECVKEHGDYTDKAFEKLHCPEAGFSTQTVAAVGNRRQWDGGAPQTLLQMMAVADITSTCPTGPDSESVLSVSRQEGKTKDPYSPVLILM
The experiment is described as follows: Inhibition of NEK5 (unknown origin) at 1 uM relative to control.

Experiment [2] concerns the target Serine/threonine-protein kinase Nek7 (Homo sapiens) (UniProt Q8TDX7). The experiment is described as follows: Inhibition of NEK7 (unknown origin) at 1 uM relative to control.
Experiment [3] concerns the target T2, Serine/threonine-protein kinase Nek10 (Homo sapiens) (UniProt Q6ZWH5).
T2 sequence (whole entry): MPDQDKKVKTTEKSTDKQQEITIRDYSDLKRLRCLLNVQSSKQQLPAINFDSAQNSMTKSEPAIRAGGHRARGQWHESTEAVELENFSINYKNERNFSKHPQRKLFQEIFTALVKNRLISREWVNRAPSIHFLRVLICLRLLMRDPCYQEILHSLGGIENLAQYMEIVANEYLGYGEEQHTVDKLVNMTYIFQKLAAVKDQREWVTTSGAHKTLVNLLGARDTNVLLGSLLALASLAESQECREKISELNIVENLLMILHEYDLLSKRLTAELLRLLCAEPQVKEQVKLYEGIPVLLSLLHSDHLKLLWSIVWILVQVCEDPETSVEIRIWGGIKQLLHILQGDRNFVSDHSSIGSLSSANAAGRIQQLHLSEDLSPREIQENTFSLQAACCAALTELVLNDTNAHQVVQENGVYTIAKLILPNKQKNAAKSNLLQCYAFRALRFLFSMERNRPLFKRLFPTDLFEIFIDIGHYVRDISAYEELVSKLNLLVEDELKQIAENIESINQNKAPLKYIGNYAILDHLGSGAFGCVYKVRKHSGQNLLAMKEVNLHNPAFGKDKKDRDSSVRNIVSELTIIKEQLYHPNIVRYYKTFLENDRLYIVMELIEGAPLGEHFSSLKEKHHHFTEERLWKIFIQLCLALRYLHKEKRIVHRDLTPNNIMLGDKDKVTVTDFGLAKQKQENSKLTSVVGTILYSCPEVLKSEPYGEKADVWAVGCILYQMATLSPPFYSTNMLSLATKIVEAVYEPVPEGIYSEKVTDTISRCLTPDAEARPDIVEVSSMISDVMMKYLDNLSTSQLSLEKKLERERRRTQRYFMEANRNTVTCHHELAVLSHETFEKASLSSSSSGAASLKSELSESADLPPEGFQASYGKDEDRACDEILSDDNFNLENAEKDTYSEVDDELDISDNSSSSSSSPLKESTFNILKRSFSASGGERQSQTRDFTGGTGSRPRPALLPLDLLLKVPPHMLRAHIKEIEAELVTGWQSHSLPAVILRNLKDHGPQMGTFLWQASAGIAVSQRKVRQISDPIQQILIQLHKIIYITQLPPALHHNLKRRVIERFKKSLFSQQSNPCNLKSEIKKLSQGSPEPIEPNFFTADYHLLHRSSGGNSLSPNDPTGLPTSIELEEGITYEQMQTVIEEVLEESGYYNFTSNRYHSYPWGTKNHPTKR
The experiment is described as follows: Inhibition of NEK10 (unknown origin) at 1 uM relative to control.

The target of experiment [4] is T3, Serine/threonine-protein kinase Nek3 (Homo sapiens) (UniProt P51956).
T3 sequence (whole entry): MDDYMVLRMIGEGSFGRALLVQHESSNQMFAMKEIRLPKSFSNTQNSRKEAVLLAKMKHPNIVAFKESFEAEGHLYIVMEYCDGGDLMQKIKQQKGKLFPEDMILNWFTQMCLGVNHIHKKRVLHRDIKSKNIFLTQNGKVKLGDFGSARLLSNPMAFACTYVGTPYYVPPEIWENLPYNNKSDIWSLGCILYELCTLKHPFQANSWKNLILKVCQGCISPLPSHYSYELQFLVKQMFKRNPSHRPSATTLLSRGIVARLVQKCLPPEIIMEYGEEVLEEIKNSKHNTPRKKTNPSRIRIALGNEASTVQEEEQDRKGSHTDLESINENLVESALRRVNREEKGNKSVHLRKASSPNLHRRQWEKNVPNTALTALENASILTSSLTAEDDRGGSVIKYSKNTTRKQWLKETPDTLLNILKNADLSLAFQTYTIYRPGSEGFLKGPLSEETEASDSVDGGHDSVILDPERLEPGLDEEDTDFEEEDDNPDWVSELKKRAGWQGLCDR
The experiment is described as follows: Inhibition of NEK3 (unknown origin) at 1 uM relative to control.

In experiment [5] the target is T4, Serine/threonine-protein kinase Nek2 (Homo sapiens) (UniProt P51955).
T4 sequence (whole entry): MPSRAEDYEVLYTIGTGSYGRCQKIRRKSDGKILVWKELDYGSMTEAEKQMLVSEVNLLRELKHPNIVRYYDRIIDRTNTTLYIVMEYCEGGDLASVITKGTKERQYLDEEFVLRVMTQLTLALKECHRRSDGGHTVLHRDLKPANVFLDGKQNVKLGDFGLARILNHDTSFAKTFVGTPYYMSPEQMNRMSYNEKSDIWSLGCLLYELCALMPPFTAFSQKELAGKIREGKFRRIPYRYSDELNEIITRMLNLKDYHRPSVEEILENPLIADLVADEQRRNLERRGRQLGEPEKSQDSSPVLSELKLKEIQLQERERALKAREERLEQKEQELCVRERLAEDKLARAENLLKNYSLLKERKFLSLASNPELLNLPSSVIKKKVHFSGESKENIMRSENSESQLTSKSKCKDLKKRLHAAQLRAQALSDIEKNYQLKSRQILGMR
Put plainly: Inhibition of NEK2 (unknown origin) at 1 uM relative to control.

In experiment [6] the target is Serine/threonine-protein kinase Nek6 (Homo sapiens) (UniProt Q9HC98). Put plainly: Inhibition of NEK6 (unknown origin) at 1 uM relative to control.
Serine/threonine-protein kinase Nek6 (Homo sapiens), sequence (Q9HC98 whole entry): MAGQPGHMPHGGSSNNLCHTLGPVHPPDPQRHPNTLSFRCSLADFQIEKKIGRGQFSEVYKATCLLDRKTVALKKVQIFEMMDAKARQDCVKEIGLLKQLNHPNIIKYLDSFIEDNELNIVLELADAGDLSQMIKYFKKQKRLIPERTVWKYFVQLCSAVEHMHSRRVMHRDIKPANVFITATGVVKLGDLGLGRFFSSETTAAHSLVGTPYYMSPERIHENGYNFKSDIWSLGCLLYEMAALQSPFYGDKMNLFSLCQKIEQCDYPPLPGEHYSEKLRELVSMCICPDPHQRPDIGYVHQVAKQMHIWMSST
Experiment [7] has as its target T5, Serine/threonine-protein kinase Nek11 (Homo sapiens) (UniProt Q8NG66).
T5 sequence (whole entry): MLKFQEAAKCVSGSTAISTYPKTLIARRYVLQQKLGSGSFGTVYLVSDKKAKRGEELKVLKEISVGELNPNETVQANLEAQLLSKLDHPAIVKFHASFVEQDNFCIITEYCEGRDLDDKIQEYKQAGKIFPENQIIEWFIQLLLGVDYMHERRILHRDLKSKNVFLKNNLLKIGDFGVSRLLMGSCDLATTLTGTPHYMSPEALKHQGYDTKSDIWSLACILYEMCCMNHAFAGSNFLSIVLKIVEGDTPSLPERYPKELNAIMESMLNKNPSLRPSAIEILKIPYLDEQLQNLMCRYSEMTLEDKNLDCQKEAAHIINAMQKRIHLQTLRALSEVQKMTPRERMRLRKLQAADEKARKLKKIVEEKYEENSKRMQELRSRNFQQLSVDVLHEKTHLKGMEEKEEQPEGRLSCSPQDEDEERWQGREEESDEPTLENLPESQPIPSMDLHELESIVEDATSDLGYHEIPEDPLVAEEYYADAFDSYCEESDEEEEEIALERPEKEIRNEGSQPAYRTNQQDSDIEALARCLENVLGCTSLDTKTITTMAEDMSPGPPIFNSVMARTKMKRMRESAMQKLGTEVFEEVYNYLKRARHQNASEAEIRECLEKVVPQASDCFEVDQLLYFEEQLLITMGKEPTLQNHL
The experiment is described as follows: Inhibition of NEK11 (unknown origin) at 1 uM relative to control.

In experiment [8] the target is Fibroblast growth factor receptor 3 (Homo sapiens) (UniProt P22607). Put plainly: Inhibition of FGFR3 (unknown origin) at 1 uM relative to control.
Fibroblast growth factor receptor 3 (Homo sapiens), sequence (P22607 23-806 limits assumed): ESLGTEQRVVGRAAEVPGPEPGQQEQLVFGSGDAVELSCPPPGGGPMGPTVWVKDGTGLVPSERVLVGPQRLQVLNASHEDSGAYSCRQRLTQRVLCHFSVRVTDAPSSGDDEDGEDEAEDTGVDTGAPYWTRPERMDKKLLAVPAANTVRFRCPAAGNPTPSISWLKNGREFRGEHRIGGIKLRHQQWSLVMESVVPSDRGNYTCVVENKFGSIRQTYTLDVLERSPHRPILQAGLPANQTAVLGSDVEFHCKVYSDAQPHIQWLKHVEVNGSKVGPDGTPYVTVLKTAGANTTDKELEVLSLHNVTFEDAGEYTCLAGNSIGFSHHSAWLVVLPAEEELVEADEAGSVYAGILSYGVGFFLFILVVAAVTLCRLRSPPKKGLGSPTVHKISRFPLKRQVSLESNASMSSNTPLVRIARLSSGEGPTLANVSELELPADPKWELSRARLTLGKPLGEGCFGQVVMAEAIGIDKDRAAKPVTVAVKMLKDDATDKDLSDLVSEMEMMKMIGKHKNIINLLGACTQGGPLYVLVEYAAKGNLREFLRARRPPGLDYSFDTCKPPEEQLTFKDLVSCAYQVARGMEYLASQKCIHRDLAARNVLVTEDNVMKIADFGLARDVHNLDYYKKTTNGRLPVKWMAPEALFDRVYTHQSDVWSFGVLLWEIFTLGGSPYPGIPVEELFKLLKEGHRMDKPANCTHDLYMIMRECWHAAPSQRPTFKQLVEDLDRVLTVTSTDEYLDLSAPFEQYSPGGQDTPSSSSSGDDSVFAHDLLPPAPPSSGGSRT
Experiment [9] has as its target T6, Cytoplasmic tyrosine-protein kinase BMX (Homo sapiens) (UniProt P51813).
T6 sequence (whole entry): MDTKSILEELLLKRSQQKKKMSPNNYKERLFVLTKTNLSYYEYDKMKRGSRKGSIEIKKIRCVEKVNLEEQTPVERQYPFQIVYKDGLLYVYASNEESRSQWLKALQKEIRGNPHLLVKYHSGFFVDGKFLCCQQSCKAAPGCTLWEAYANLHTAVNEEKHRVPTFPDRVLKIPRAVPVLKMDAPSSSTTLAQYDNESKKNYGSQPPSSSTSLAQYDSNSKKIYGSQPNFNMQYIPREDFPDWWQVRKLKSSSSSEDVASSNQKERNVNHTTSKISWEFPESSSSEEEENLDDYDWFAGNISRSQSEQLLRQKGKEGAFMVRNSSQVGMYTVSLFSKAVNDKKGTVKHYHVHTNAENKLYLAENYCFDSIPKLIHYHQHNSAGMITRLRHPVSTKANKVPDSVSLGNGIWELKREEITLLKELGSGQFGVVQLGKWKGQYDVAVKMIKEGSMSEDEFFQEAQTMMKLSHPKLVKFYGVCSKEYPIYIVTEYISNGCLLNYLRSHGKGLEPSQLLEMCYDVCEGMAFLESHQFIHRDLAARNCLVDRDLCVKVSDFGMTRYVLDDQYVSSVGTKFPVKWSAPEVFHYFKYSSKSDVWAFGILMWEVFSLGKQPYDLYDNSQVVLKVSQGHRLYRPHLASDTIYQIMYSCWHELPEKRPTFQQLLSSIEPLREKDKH
The experiment is described as follows: Inhibition of BMX (unknown origin) at 1 uM relative to control.

For experiment [10], the target named is Angiopoietin-1 receptor (Homo sapiens) (UniProt Q02763). The experiment is described as follows: Inhibition of TIE2 (unknown origin) at 1 uM relative to control.
Angiopoietin-1 receptor (Homo sapiens), sequence (Q02763 whole entry): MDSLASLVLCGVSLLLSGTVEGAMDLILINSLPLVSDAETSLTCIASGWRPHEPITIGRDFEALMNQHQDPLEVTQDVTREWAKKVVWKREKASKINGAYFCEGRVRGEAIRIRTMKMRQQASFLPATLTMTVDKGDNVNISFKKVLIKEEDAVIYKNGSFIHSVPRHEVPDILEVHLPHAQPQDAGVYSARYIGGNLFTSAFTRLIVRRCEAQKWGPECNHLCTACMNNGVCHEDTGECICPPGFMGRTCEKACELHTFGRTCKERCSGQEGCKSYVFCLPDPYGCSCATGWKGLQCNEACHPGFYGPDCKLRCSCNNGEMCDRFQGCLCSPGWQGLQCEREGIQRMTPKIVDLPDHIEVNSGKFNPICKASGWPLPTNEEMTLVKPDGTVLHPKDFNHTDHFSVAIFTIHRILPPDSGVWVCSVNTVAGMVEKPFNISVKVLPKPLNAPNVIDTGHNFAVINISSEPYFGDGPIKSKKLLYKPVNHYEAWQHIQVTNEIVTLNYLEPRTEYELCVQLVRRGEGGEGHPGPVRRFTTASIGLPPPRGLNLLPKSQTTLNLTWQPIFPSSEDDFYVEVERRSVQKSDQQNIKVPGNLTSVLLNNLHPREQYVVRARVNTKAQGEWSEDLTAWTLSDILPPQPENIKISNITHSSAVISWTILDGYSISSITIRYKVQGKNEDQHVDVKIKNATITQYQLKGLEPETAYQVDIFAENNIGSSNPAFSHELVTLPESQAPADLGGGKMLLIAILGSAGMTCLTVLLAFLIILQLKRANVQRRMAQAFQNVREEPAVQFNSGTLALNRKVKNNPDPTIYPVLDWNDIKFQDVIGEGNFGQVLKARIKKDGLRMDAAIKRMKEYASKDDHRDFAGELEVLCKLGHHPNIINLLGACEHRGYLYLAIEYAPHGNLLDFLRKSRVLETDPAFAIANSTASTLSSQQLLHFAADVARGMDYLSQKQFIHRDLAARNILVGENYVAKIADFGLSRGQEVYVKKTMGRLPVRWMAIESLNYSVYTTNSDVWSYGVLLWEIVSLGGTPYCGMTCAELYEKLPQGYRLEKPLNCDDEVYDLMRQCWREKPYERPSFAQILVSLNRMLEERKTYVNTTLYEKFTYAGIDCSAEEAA
Experiment [11] has as its target T7, Mitogen-activated protein kinase kinase kinase 19 (Homo sapiens) (UniProt Q56UN5).
T7 sequence (whole entry): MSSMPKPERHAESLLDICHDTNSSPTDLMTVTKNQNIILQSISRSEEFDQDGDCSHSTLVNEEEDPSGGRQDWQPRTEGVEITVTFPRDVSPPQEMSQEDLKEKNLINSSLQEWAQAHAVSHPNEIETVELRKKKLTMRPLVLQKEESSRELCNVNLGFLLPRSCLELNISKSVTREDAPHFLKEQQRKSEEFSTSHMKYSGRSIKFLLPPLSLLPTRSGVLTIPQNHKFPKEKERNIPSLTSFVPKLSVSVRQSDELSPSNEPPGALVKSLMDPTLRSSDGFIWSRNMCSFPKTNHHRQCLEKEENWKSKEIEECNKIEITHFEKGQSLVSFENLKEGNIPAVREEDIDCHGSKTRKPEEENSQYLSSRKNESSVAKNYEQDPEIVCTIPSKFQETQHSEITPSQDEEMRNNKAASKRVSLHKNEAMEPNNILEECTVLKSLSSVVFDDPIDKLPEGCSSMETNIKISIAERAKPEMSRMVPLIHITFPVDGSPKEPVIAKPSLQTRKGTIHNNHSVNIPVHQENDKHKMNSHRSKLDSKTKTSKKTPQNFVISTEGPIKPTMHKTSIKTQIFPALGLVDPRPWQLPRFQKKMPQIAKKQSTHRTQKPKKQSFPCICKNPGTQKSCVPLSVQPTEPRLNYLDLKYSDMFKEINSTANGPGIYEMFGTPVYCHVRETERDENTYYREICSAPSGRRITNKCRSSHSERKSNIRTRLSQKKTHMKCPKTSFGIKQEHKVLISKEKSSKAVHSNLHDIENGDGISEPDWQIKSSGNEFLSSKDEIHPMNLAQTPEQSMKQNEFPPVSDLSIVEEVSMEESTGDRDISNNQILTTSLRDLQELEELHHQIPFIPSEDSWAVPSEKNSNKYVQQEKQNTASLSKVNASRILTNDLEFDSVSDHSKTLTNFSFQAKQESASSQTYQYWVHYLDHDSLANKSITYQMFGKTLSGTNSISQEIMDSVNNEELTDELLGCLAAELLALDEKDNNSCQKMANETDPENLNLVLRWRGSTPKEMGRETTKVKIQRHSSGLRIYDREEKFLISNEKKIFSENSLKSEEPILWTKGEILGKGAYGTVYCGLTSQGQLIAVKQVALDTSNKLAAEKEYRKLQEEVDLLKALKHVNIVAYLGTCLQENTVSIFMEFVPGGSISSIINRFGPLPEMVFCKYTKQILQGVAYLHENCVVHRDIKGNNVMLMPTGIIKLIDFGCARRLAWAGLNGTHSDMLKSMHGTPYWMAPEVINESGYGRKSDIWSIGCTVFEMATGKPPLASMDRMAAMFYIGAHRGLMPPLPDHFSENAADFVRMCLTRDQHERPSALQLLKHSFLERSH
The experiment is described as follows: Inhibition of YSK4 (unknown origin) at 1 uM relative to control.

Serine/threonine-protein kinase Nek7 (Homo sapiens), sequence (Q8TDX7 whole entry, looked up): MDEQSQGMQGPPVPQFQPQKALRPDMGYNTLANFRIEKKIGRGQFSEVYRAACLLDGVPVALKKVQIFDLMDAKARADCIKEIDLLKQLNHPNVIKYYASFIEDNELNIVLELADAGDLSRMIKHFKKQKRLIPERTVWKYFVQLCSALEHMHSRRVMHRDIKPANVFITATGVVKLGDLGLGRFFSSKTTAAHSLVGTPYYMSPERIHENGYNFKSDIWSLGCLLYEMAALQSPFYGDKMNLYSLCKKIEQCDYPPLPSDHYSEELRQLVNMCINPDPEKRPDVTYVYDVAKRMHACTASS

Broadly, the inhibition is the percentage by which the read-out fell short of the control. A low value points to a response near the control. For `CC(C)(C)c1nc(-c2cccc(NS(=O)(=O)c3c(F)cccc3F)c2F)c(-c2ccnc(N)n2)s1`, the inhibition in experiment [1] was determined as 75%; in [2], 1.6%; in experiment [3], 56%; in experiment [4], 100%; in experiment [5] it was 7%; in experiment [6], 0.3%. The inhibition in [7] was 0.2%.

In [5], `CC[C@@H]1C(=O)N(C)c2cnc(Nc3ccc(C(=O)NC4CCN(C)CC4)cc3OC)nc2N1C1CCCC1` came in with an inhibition of 72%.

For `Cn1cc(-c2cccc3c(N)c(C(N)=O)nnc23)cn1`, the inhibition in experiment [8] is 12%; in [3], 48%; in [9] it was 15%; in experiment [10], 1%; in [11], 94.4%.

As for `NC(=O)c1nnc2ccccc2c1N`, the inhibition in experiment [8] worked out at 90%; in [3], 85%; in experiment [9], 90.1%; in [10], 98.7%; in experiment [11] it was 88%.
